Values quoted from earlier work as cited in patent US9233176B2, “Systems and method of delivering fluids to a patient of varying concentration” (Bayer HealthCare LLC, priority 2006, dated 2016).
Like-named read-outs stand apart in the source and are kept apart here.

COCC(=O)Nc1c(I)c(C(=O)NCC(O)CO)c(I)c(C(=O)N(C)CC(O)CO)c1I (centres unmarked) [Iopromide]
iodine flux rate (300 mg I/ml solution, application flow rate 8 ml/s): 2400 mg I/s
iodine flux rate (370 mg I/ml solution, application flow rate 6 ml/s): 2220 mg I/s
